Data: PMC7967551 (2021)

Tests used:
[1] = tested on: Tel23 (DNA, G4) TAGGGTTAGGGTTAGGGTTAGGG; assay: absorbance titration; details: K+ (KCl 0.1 M stated for G4 melting), Li+; LiCac 2.5 mM, pH 7.0; no signal change; highest concentration not stated
[2] = tested on: Tel23 (DNA, G4) TAGGGTTAGGGTTAGGGTTAGGG; assay: UV melting at 295 nm; details: K+ 100 mM (KCl), Li+, LiCac 2.5 mM, pH 7.0, 5.51 µM G4, no stabilizing effect

Row | binding [1] | binding ([2]; 6.01 µM compound) | binding ([2]; 5.47 µM compound) | SMILES
1 | no | no | – | C[n+]1ccc(-c2cc[n+](C)cc2)cc1
2 | no | – | no | c1cc[n+]2c(c1)-c1cccc[n+]1CC2
